Measured values from ChEMBL document CHEMBL1158814, “Lehualides A-D, metabolites from a Hawaiian sponge of the genus Plakortis” (J Nat Prod, 2005).
In brackets after ≈: the same amount, converted by molar mass.

Assays:
[1] = Toxicity against brine shrimp; assay type: organism-based; conditions: artemia, in vivo; read-out: LD50 (the source's name)
[2] = Cytotoxicity against human IGROV-ET cells; assay type: functional
K562 = assay: Cytotoxicity against human K562 cells; assay type: functional

Row | SMILES | LC50 [1] [µg/mL] | GI50 [2] [nM] | GI50 (K562) [nM]
1 | COc1oc(C/C=C(\C)CCCCCCCCCSC(C)=O)c(C)c(=O)c1OC [LEHUALIDE C] | 15 (≈ 35.3 µM) |  | 
2 | COc1oc(C/C=C(\C)CC/C=C(/C)C/C(C)=C/Cc2ccccc2)c(C)c(=O)c1OC [LEHUALIDE B] | 15 (≈ 34.4 µM) | 830 | 
3 | COc1oc(C/C=C(\C)CCCCCCCCCS)c(C)c(=O)c1OC [LEHUALIDE D] | 15 (≈ 39.2 µM) | 730 | 230
4 | COc1c(O)c(C)c(C/C=C(\C)CC/C=C(/C)C/C(C)=C/Cc2ccccc2)oc1=O [LEHUALIDE A] | 50 (≈ 118 µM) |  | 
